Measurements reported in patent publication US20110166223A1, “METHODS OF INHIBITING FGFR3 SIGNALING” (CEDARS-SINAI MEDICAL CENTER, priority 2008, published 2011).
Values belong to the compound of their own block, whether it stands above or below them.

Assays:
[1] = tested on: FGF2/FGFR3-mediated growth-arrest of rat chondrosarcoma (RCS) cells; settings: previous work [9, 12]; cited from earlier work
[2] = biological target: T1, recombinant tyrosine kinase (TK) domain of FGFR3 (Homo sapiens, UniProt P22607); settings: previous work [9, 12]; cited from earlier work
T1 construct: recombinant tyrosine kinase (TK) domain of FGFR3 (Glu-322-Thr-806; Cell Signaling); purchased Cell Signaling
T1 sequence (P22607 322-806): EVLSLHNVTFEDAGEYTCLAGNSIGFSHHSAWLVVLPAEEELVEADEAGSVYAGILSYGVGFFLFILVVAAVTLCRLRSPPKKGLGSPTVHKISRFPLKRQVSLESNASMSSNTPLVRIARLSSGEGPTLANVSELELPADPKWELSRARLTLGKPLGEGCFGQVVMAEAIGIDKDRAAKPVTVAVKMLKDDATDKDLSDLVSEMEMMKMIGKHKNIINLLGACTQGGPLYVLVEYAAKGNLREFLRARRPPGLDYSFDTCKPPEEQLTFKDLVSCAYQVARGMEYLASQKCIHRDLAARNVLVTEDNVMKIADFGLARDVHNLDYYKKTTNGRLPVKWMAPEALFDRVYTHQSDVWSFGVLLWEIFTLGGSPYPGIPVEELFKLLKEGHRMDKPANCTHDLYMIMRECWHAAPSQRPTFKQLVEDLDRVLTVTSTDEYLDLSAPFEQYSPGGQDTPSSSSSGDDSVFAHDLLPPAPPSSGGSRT

[3] = biological target: T1, recombinant tyrosine kinase (TK) domain of FGFR3; test: Cell-free FGFR3 kinase assay with STAT1 as substrate; assay type: biochemical; settings: added directly to the kinase reaction; FIG. 4
Method: FIG. 4, in accordance with an embodiment herein, depicts 4,4′,4″,4′″-[carbonyl-bis[imino-5,1,3-benzenetriyl bis-{carbonylimino}]]tetrakis-{benzene-1,3-disulfonic acid} inhibits FGFR3 activity in a kinase assay. (a, b) Cell-free kinase assays were carried out as described herein, with recombinant tyrosine kinase (TK) domain of FGFR3 as a kinase, recombinant STAT1 as a substrate, and NF449 added directly to the kinase reaction. FGFR3-mediated phosphorylation of STAT1 was detected by WB with P-STAT1 (Y^701) antibody. The membrane was reprobed with FGFR3 and STAT1 antibodies to control for kinase and substrate quantity. The sample with ATP omitted serves as a negative control for the kinase reaction. Note the FGFR3-mediated phosphorylation of STAT1 is inhibited by 4,4′,4″,4′″-[carbonyl-bis[imino-5,1,3-benzenetriyl bis-{carbonylimino}]]tetrakis-{benzene-1,3-disulfonic acid}. The P-STAT1 and STAT1 signal was quantified by densitometry and expressed as a ratio between P-STAT1 and STAT1 signal for each given sample (b, lower graph). (c) The FGFR3 kinase assay was carried-out as described in (a) with 4,4′,4″,4′″-[carbonyl-bis[imino-5,1,3-benzenetriyl bis-{carbonylimino}]]tetrakis-{benzene-1,3-disulfonic acid}, 8,8′-[carbonylbis[imino-3,1-phenylenecarbonylimino{4-methyl-3,1-phenylene}carbonylimino]]bis-1,3,5-naphthalenetrisulfonic acid or 8,8′-[carbonylbis[imino-3,1-phenylene]]bis-{1,3,5-naphthalenetrisulfonic acid} added to the kinase reaction. Note the differential effects of 8,8′-[carbonylbis[imino-3,1-phenylenecarbonylimino{4-methyl-3,1-phenylene}carbonylimino]]bis-1,3,5-naphthalenetrisulfonic acid and 8,8′-[carbonylbis[imino-3,1-phenylene]]Bis-{1,3,5-naphthalenetrisulfonic acid} on the FGFR3-mediated phosphorylation of STAT1, which corresponds to their activity in the RCS growth-arrest experiment (lower graph). Data are an average from four wells with the indicated standard deviation. Statistically significant rescue of the growth arrest is indicated (Student's I-test; *-p<0.01).
OPM2 and KMS11 cells were lysed in ice-cold immunoprecipitation buffer (50 mM Tris-HCl pH 7.4, 150 mM NaCl, 0.5% NP-40, 1 mM EDTA, 25 mM NaF) supplemented with proteinase inhibitors and 10 mM sodium orthovanadate. Protein samples were resolved by SDS-PAGE and transferred onto a PVDF membrane. The following antibodies were used: Erk1/2, P-Erk1/2^T202/Y204, STAT1, P-STAT1^Y701 (Cell Signaling, Beverly, Mass.) and FGFR3 (Santa Cruz Biotechnology, Santa Cruz, Calif.). Western blotting signal was quantified by determining the integrated optical density (I.O.D.) of a given band using Scion Image software (Scion Corporation, Frederick, Mass.). Immunoprecipitations and FGFR3 kinase assays were performed as described. Briefly, the pRK7 vector encoding C-terminally FLAG-tagged K650E-FGFR3 was transfected into CHO cells using FuGENE6 reagent according to the manufacturer's protocol (Roche Applied Science, Indianapolis, Ind.). 48 hours after transfection, cells were treated with 20 ng/ml of FGF2 for 15 minutes and K650E-FGFR3 was immunoprecipitated from 800 μg of cell lysate protein using 4 μg of anti-FLAG antibody (Sigma-Aldrich, St. Louis, Mo.). Cells transfected with a plasmid encoding green fluorescent protein (pCCEY) serve as a negative control for the immunoprecipitation. Immunocomplexes were washed two times with kinase buffer (60 mM HEPES-NaOH pH 7.5, 3 mM MgCl2, 3 mM MnCl2, 3 μM Na3VO4, 1.2 mM dithiothreitol), and the kinase reactions were performed for 30 minutes at 30° C. in the presence of 2.5 μg of polyethylene glycol, 10 μM ATP, 300 ng of recombinant STAT1 (Active Motif, Carlsbad, Calif.) as a substrate, and NF449 added directly to the kinase reaction. Kinase assays utilizing recombinant tyrosine kinase (TK) domain of FGFR3 (Glu-322-Thr-806; Cell Signaling) were carried-out similarly, with 300 ng of kinase used in 50 μl reaction, and suramin, NF449 and NF023 added directly to the kinase reaction. […]

[4] = tested on: FGF2/FGFR3-mediated growth-arrest of rat chondrosarcoma (RCS) cells
Source text: In this assay, the FGF2/FGFR3-mediated growth-arrest of rat chondrosarcoma (RCS) cells is used as a reporter, thus allowing for elimination of toxic compounds as false-positive hits (Krejci, et al., Invest New Drugs 2007, 25: 391-395).
Rat chondrosarcoma chondrocytes (RCS), chinese hamster ovary (CHO) cells and MM cell lines OPM2 and KMS11 were propagated in DMEM, Opti-MEM or RPMI media (Gibco, Gaitherbsburg, Md.), supplemented with 10% fetal bovine serum (Atlanta Biological, Nordeross, Ga.) and antibiotics. […] For the RCS growth-arrest experiments shown at FIGS. 1 and 4c, 1×10^4 RCS chondrocytes were seeded in 24-well tissue culture plates (Costar, Cambridge, Mass.), treated as indicated for 72 hours, and counted. FGF2 was obtained from R&D Systems (Minneapolis, Minn.); C-natriuretic peptide, suramin, NF023 and NF449 were from Calbiochem (San Diego, Calif.).

Compound: Cc1c[nH]c(/C=C2\C(=O)Nc3ccccc32)c1CCC(=O)O [SU5402]
concentration range inhibiting RCS growth arrest [1]: 2 to 20 µM
concentration range inhibiting FGFR3 kinase activity [2]: 2 to 20 µM

effect on FGFR3 kinase activity (in words) [3]: inhibited FGFR3 kinase activity
Compound: Cc1ccc(C(=O)Nc2ccc(S(=O)(=O)O)c3cc(S(=O)(=O)O)cc(S(=O)(=O)O)c23)cc1NC(=O)c1cccc(NC(=O)Nc2cccc(C(=O)Nc3cc(C(=O)Nc4ccc(S(=O)(=O)O)c5cc(S(=O)(=O)O)cc(S(=O)(=O)O)c45)ccc3C)c2)c1 [suramin, 8,8′-[carbonylbis[imino-3,1-phenylenecarbonylimino{4-methyl-3,1-phenylene}carbonylimino]]bis-1,3,5-naphthalenetrisulfonic acid, reference compound]
effect on FGF2/FGFR3-mediated growth arrest (in words) ([4]; RCS chondrocytes, FIGS. 1, 4c): reversed the FGF2/FGFR3-mediated growth arrest

Compound: C-natriuretic peptide [CNP, reference compound]
rescue of the FGF2-mediated RCS growth-arrest ([4]; FIG. 1b, each agent alone, 72 hours): ~23%
